“Also recorded” adds a separate entry of the source.
Key:
[1] = Critical micelle concentration by fluorescent staining with diphenylhexatriene (DPH); assay type: physicochemical; details: aqueous solution
Procedure: A method of measuring CMC is not particularly limited, and any method well known in the art, for example, a fluorescent staining method using diphenylhexatriene (DPH) may be used.
(§1) Specifically, a CMC was measured using fluorescent staining and diphenylhexatriene (DPH), and the hydrodynamic radii (Rh) of micelles formed by each agent (1.0 wt %) were measured by a DLS test. The measured results were compared with those for the conventional amphipathic molecule (detergent), DDM, and thus are shown in Table 1.

[2] = biological target: T1, uric acid-xanthine/H+ symporter (UapA) (Emericella nidulans, UniProt Q07307, G411V); experiment: Thermal/structural stability of UapA by CPM fluorescence assay; assay type: biochemical, Aspergillus nidulans; details: CMC+0.2 wt %, 125 minutes at 40° C., FIG. 10
T1 construct: GFP; made in house; host or cells: Saccharomyces cerevisiae FGY217
T1 sequence (Q07307 12-574 G411V): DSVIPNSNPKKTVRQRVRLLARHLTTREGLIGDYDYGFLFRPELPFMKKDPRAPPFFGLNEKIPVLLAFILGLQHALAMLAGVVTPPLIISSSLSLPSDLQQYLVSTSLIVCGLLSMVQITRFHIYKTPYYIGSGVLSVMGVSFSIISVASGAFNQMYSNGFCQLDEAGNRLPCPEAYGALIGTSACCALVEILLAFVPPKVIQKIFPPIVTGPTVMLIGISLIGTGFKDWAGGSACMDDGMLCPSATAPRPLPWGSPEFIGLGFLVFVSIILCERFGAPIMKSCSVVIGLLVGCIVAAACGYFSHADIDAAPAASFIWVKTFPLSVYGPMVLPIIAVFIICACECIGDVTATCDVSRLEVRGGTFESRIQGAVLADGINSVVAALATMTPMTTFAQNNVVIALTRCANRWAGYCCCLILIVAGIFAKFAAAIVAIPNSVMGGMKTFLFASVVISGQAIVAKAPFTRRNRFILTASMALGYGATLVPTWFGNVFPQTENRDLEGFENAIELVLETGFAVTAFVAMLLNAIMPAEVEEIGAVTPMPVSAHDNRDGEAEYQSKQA
Procedure: An experiment of measuring structural stability of a uric acid-xanthine/H+ symporter (UapA) separated from Aspergillus nidulans by TMG was performed. The structural stability of UapA was evaluated using a sulfhydryl-specific fluorophore and N-[4-(7-diethylamino-4-methyl-3-coumarinyl)phenyl]maleimide (CPM).
Specifically, UapAG411V1-11 (hereinafter, referred to as “UapA”) expressed as a GFP fusion protein from a Saccharomyces cerevisiae FGY217 strain, and the protein was separated using a sample buffer (20 mM Tris (pH 7.5), 150 mM NaCl, 0.03% DDM, 0.6 mM xanthine) according to a method disclosed in the article written by J. Leung et al. (Mol. Membr. Biol. 2013, 30, 32-42). The protein having a molecular weight of 100 kDa was concentrated to approximately 10 mg/mL using a cut-off filter (Millipore). The protein was diluted with a buffer containing each of the TMG-As (TMG-A11, TMG-A12, TMG-A13 and TMG-A14), TMG-Ts (TMG-T11, TMG-T12, TMG-T13 and TMG-T14), MNG-3 or DDM at a ratio of 1:150 to reach the final concentration of CMC+0.04 wt % or CMC+0.2 wt % in a Greiner 96-well plate. A CPM dye (Invitrogen) stored in DMSO (Sigma) was diluted with a staining buffer (20 mM Tris (pH 7.5), 150 mM NaCl, 0.03% DDM, 5 mM EDTA), and 3 μL of the staining buffer was added to each sample. The reaction mixture was incubated at a constant temperature for 125 minutes at 40° C. Fluorescence emission was recorded using a microplate spectrofluorometer set to each of excitation and emission wavelengths of 387 nm and 463 nm. A relative amount of folded proteins was plotted over time using GraphPad Prism.

[3] = test system: LeuT (leucine transporter); experiment: LeuT stability by [3H]-Leu substrate binding, scintillation proximity assay (SPA); assay type: biochemical, Aquifex aeolicus; details: TMGs or DDM at CMC+0.04 wt %, 10 days at room temperature
Procedure: An experiment of measuring LeuT protein stability for TMGs and TMMs was performed. (a) CMC+0.04 wt % or (b) CMC+0.2 wt % of each amphipathic molecule was used, and the evaluation of the LeuT protein stability was performed by taking an advantage of a characteristic of LeuT binding to a substrate through a scintillation proximity assay (SPA) using [^3H]-Leu. […]
Specifically, wild type LeuT (leucine transporter) derived from a thermophilic bacterium, Aquifex aeolicus, was purified by a previously-disclosed method (G. Deckert et al., Nature 1998, 392, 353-358). LeuT was expressed in E. coli C41 (DE3) transformed with pET16b encoding a C-terminus 8×His-tagged transporter (the expression plasmid was provided by Dr E. Gouaux, Vollum Institute, Portland, Oreg., USA). In summary, following isolation of a bacterial membrane and lysis with 1% (w/v) DDM, the protein was allowed to bind to a Ni^2+-NTA resin (Life Technologies, Denmark), and eluted in 20 mM Tris-HCl (pH 8.0), 1 mM NaCl, 199 mM KCl, 0.05% (w/v) DDM and 300 mM imidazole. Afterward, the purified LeuT (approximately 1.5 mg/ml) was diluted with the same buffer used above, from which DDM and imidazole were removed, and then supplemented with TMGs or DDM at the final concentration of CMC+0.04% (w/v). […] SPA was performed using a buffer containing 450 mM NaCl and each of the TMGs and TMMs at the predetermined concentration. The SPA reaction is performed in the presence of 20 nM [^3H]-Leucine and 1.25 mg/ml copper chelate (His-Tag) YSi beads (Perkin Elmer, Denmark). A total [^3H]-Leucine binding degree of each sample was measured using a MicroBeta liquid scintillation counter (Perkin Elmer).

[4] = Hydrodynamic radius of micelles by dynamic light scattering (DLS); assay type: physicochemical; details: micelles formed by each agent at 1.0 wt %
Procedure: A method of measuring the radius of the micelles is not particularly limited, and any method well known in the art, for example, a DLS test may be used.
as §1

[5] = biological target: T2, human β2 adrenergic receptor (β2AR) (Homo sapiens, UniProt P07550); experiment: β2AR stability by [3H]-dihydroalprenolol (DHA) ligand binding assay; assay type: biochemical; details: CMC+0.2 wt %; for long-term maintenance of binding between β2AR and ligand: 7-day incubation at room temperature, FIG. 14b; for initial β2AR receptor activity ([3H]-DHA binding): FIG. 14a
T2 construct: made in house; host or cells: cell membrane
T2 sequence (P07550 whole entry): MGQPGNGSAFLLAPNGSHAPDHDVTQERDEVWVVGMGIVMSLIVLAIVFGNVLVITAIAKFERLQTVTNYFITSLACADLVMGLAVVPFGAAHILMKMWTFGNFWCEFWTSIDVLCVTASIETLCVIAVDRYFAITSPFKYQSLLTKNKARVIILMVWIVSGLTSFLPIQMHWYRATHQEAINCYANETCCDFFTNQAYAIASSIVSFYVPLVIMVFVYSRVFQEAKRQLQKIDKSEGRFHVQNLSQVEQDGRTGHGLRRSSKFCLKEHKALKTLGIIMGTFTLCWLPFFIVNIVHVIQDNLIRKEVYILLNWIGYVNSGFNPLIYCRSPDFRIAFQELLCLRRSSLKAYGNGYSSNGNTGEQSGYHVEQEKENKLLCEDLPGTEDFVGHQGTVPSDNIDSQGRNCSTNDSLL
Procedure: Experiments for measuring stability of a human β2 adrenergic receptor (β2AR) and a G-protein-coupled receptor (GPCR) by TMGs were performed. A receptor was extracted from a cell membrane using 1% DDM and purified with a 0.1% amphipathic molecule. The receptor purified with the DDM was diluted with a buffer solution containing DDM or TMGs to adjust the final concentration of the compound to CMC+0.2 wt %. β2AR solubilized by each amphipathic molecule was stored for 7 days at room temperature, and the sample was incubated with 10 nM [^3H]-dihydroalprenolol (DHA) supplemented with 0.5 mg/ml BSA for 30 minutes at room temperature to evaluate a ligand-binding ability at regular intervals during the experimental period. The mixture was loaded onto a G-50 column, and a liquid running through the column was collected using 1 ml of a binding buffer (20 mM HEPES containing 0.5 mg/ml BSA and 20×CMC of each amphipathic molecule, pH 7.5, 100 mM NaCl). In addition, 15 ml of a scintillation fluid was added, and receptor-bound [^3H]-DHA was measured using a scintillation counter (Beckman). A binding degree of the [^3H]-DHA was shown by a column graph (FIG. 14). The experiment was repeated three times.

| Structure (SMILES) | CMC [1] [mM] | CMC (wt %) [1] [wt %] | ability to conserve UapA transporter in a folded state [2] | substrate-binding ability of LeuT [3] | Rh (nm), hydrodynamic radius of micelles [4] [nm] | long-term maintenance of binding between β2AR and ligand [5] | initial β2AR receptor activity ([3H]-DHA binding) [5] |
| --- | --- | --- | --- | --- | --- | --- | --- |
| CCCCCCCCCCCOCC(CO[C@@H]1OC(CO)[C@@H](O)C(O)C1O)(CO[C@@H]1OC(CO)[C@@H](O)C(O)C1O)CSCC(COCCCCCCCCCCC)(CO[C@@H]1OC(CO)[C@@H](O)C(O)C1O)CO[C@@H]1OC(CO)[C@@H](O)C(O)C1O (some centres unmarked) [TMG-T11] | ~0.020 | ~0.0025 | the least effective, and had lower stability than DDM | a better characteristic than DDM | 3.0 ± 0.07 | – | – |
| CCCCCCCCCCCCCOCC(CO[C@@H]1OC(CO)[C@@H](O)C(O)C1O)(CO[C@@H]1OC(CO)[C@@H](O)C(O)C1O)CSCC(COCCCCCCCCCCCCC)(CO[C@@H]1OC(CO)[C@@H](O)C(O)C1O)CO[C@@H]1OC(CO)[C@@H](O)C(O)C1O (some centres unmarked) [TMG-T13] | ~0.006 | ~0.0008 | excellent effect of stabilizing transporter folding | a better characteristic than DDM | 3.3 ± 0.08 | superior to DDM in terms of long-term maintenance of binding between the receptor and the ligand | as effective as DDM |
| CCCCCCCCCCCCCCC(CCCC(CCCCCCCCCCCCCC)(CO[C@@H]1OC(CO)[C@@H](O)C(O)C1O)CO[C@@H]1OC(CO)[C@@H](O)C(O)C1O)(CO[C@@H]1OC(CO)[C@@H](O)C(O)C1O)CO[C@@H]1OC(CO)[C@@H](O)C(O)C1O (some centres unmarked) [TMG-A14] | ~0.004 | ~0.0005 | excellent effect of stabilizing transporter folding | – | 3.8 ± 0.10 | superior to DDM in terms of long-term maintenance of binding between the receptor and the ligand | – |
| CCCCCCCCCCCCCCOCC(CO[C@@H]1OC(CO)[C@@H](O)C(O)C1O)(CO[C@@H]1OC(CO)[C@@H](O)C(O)C1O)CSCC(COCCCCCCCCCCCCCC)(CO[C@@H]1OC(CO)[C@@H](O)C(O)C1O)CO[C@@H]1OC(CO)[C@@H](O)C(O)C1O (some centres unmarked) [TMG-T14] | ~0.004 | ~0.0005 | excellent effect of stabilizing transporter folding | a better characteristic than DDM | 3.8 ± 0.09 | superior to DDM in terms of long-term maintenance of binding between the receptor and the ligand; also recorded: most excellent in maintenance of binding between a receptor and a ligand | – |
| CCCCCCCCCCCCCC(CCCC(CCCCCCCCCCCCC)(CO[C@@H]1OC(CO)[C@@H](O)C(O)C1O)CO[C@@H]1OC(CO)[C@@H](O)C(O)C1O)(CO[C@@H]1OC(CO)[C@@H](O)C(O)C1O)CO[C@@H]1OC(CO)[C@@H](O)C(O)C1O (some centres unmarked) [TMG-A13] | ~0.006 | ~0.0007 | excellent effect of stabilizing transporter folding | – | 3.6 ± 0.16 | superior to DDM in terms of long-term maintenance of binding between the receptor and the ligand | as effective as DDM |

From patent publication US10808003B2, “Amphipathic molecule based on tandem malonate and use thereof” (Industry-University Cooperation Foundation Hanyang …, priority 2017, dated 2020)
